# Measured values: ChEMBL document CHEMBL1275577, “Study of the in vitro activities of rifaximin and comparator agents against 536 anaerobic intestinal bacteria from the perspective of potential utility in pathology involving bowel flora” (Antimicrob Agents Chemother, 2009)
# Tests used:
# Assay type in all cases: functional
# Bacteroides fragilis = assay: Antimicrobial activity against Bacteroides fragilis by Wadsworth agar dilution method
# [1] = system: Parabacteroides goldsteinii; assay: Antimicrobial activity against Parabacteroides goldsteinii by Wadsworth agar dilution method
# Bacteroides stercoris = assay: Antimicrobial activity against Bacteroides stercoris by Wadsworth agar dilution method
# Bacteroides uniformis = assay: Antimicrobial activity against Bacteroides uniformis by Wadsworth agar dilution method
# [2] = system: Desulfovibrio desulfuricans; assay: Antimicrobial activity against Desulfovibrio desulfuricans by Wadsworth agar dilution method
# [3] = system: Desulfovibrio fairfieldensis; assay: Antimicrobial activity against Desulfovibrio fairfieldensis by Wadsworth agar dilution method
# Desulfovibrio vulgaris = assay: Antimicrobial activity against Desulfovibrio vulgaris by Wadsworth agar dilution method; settings: Nitratidesulfovibrio vulgaris
# Fusobacterium nucleatum = assay: Antimicrobial activity against Fusobacterium nucleatum by Wadsworth agar dilution method
# Porphyromonas = assay: Antimicrobial activity against Porphyromonas sp. by Wadsworth agar dilution method
# Prevotella bivia = assay: Antimicrobial activity against Prevotella bivia by Wadsworth agar dilution method
# Prevotella corporis = assay: Antimicrobial activity against Prevotella corporis by Wadsworth agar dilution method
# Prevotella intermedia = assay: Antimicrobial activity against Prevotella intermedia by Wadsworth agar dilution method
# Hoylesella loescheii = assay: Antimicrobial activity against Prevotella loescheii by Wadsworth agar dilution method
# Clostridium hathewayi = assay: Antimicrobial activity against Clostridium hathewayi by Wadsworth agar dilution method; settings: Hungatella hathewayi
# Flavonifractor plautii = assay: Antimicrobial activity against Clostridium orbiscindens by Wadsworth agar dilution method
# Clostridium bartlettii = assay: Antimicrobial activity against Clostridium bartlettii by Wadsworth agar dilution method; settings: Intestinibacter bartlettii
# [4] = system: Paraclostridium bifermentans; assay: Antimicrobial activity against Clostridium bifermentans by Wadsworth agar dilution method
# Clostridium butyricum = assay: Antimicrobial activity against Clostridium butyricum by Wadsworth agar dilution method
# Clostridium cadaveris = assay: Antimicrobial activity against Clostridium cadaveris by Wadsworth agar dilution method
# Clostridium disporicum = assay: Antimicrobial activity against Clostridium disporicum by Wadsworth agar dilution method
# Clostridium fallax = assay: Antimicrobial activity against Clostridium fallax by Wadsworth agar dilution method
# [5] = system: Clostridium lactatifermentans; assay: Antimicrobial activity against Clostridium lactatifermentans by Wadsworth agar dilution method; settings: Anaerotignum lactatifermentans
# Clostridium nexile = assay: Antimicrobial activity against Clostridium nexile by Wadsworth agar dilution method; settings: Faecalimonas nexilis
# [6] = system: Clostridium paraputrificum; assay: Antimicrobial activity against Clostridium paraputrificum by Wadsworth agar dilution method
# Thomasclavelia ramosa = assay: Antimicrobial activity against Clostridium ramosum by Wadsworth agar dilution method
# Fusobacterium mortiferum = assay: Antimicrobial activity against Clostridium rectum by Wadsworth agar dilution method
# Clostridium subterminale = assay: Antimicrobial activity against Clostridium subterminale by Wadsworth agar dilution method
# Clostridium symbiosum = assay: Antimicrobial activity against Clostridium symbiosum by Wadsworth agar dilution method
# Schaalia meyeri = assay: Antimicrobial activity against Actinomyces meyeri by Wadsworth agar dilution method
# [7] = system: Bifidobacterium adolescentis; assay: Antimicrobial activity against Bifidobacterium adolescentis by Wadsworth agar dilution method
# Bifidobacterium breve = assay: Antimicrobial activity against Bifidobacterium breve by Wadsworth agar dilution method
# Bifidobacterium dentium = assay: Antimicrobial activity against Bifidobacterium dentium by Wadsworth agar dilution method
# Collinsella aerofaciens = assay: Antimicrobial activity against Colinsella aerofaciens by Wadsworth agar dilution method
# [8] = system: Coprobacillus cateniformis; assay: Antimicrobial activity against Coprobacillus cateniformis by Wadsworth agar dilution method
# [9] = system: Pseudoramibacter alactolyticus; assay: Antimicrobial activity against Eubacterium alactolyticum by Wadsworth agar dilution method
# Eubacterium cylindroides = assay: Antimicrobial activity against Eubacterium cylindroides by Wadsworth agar dilution method; settings: Faecalitalea cylindroides
# Eubacterium limosum = assay: Antimicrobial activity against Eubacterium limosum by Wadsworth agar dilution method
# [10] = system: Lactobacillus catenaformis; assay: Antimicrobial activity against Lactobacillus catenaformis by Wadsworth agar dilution method; settings: Eggerthia catenaformis
# [11] = system: Lacticaseibacillus rhamnosus; assay: Antimicrobial activity against Lactobacillus rhamnosus by Wadsworth agar dilution method
# Lactobacillus sp. = assay: Antimicrobial activity against Lactobacillus sp. by Wadsworth agar dilution method
# Finegoldia magna = assay: Antimicrobial activity against Finegoldia magna by Wadsworth agar dilution method
# Parvimonas micra = assay: Antimicrobial activity against Peptostreptococcus micros by Wadsworth agar dilution method
# [12] = system: Ruminococcus flavefaciens; assay: Antimicrobial activity against Ruminococcus flavefaciens by Wadsworth agar dilution method
# Ruminococcus gnavus = assay: Antimicrobial activity against Ruminococcus gnavus by Wadsworth agar dilution method; settings: Mediterraneibacter gnavus
# Ruminococcus lactaris = assay: Antimicrobial activity against Ruminococcus lactaris by Wadsworth agar dilution method
# Blautia luti = assay: Antimicrobial activity against Ruminococcus luti by Wadsworth agar dilution method
# Ruminococcus obeum = assay: Antimicrobial activity against Ruminococcus obeum by Wadsworth agar dilution method; settings: Blautia obeum
structure (smiles),measurement,setting,value
CO[C@H]1/C=C/O[C@@]2(C)Oc3c(C)c(O)c4c(O)c(c5c(nc6cc(C)ccn65)c4c3C2=O)NC(=O)/C(C)=C\C=C\[C@H](C)[C@H](O)[C@@H](C)[C@@H](O)[C@@H](C)[C@H](OC(C)=O)[C@@H]1C [RIFAXIMIN],MIC,Bacteroides fragilis,0.25 µg/mL
same,MIC50,Bacteroides fragilis,0.25 µg/mL
same,MIC90,Bacteroides fragilis,> 1020 µg/mL
same,MIC,[1],0.25 µg/mL
same,MIC50,[1],0.25 µg/mL
same,MIC90,[1],1 µg/mL
same,MIC,Bacteroides stercoris,0.25 µg/mL
same,MIC50,Bacteroides stercoris,0.25 µg/mL
same,MIC90,Bacteroides stercoris,0.5 µg/mL
same,MIC,Bacteroides uniformis,0.25 µg/mL
same,MIC50,Bacteroides uniformis,0.25 µg/mL
same,MIC90,Bacteroides uniformis,0.5 µg/mL
same,MIC,[2],32 µg/mL
same,MIC50,[2],32 µg/mL
same,MIC90,[2],64 µg/mL
same,MIC50,[3],16 µg/mL
same,MIC90,[3],332 µg/mL
same,MIC50,Desulfovibrio vulgaris,16 µg/mL
same,MIC90,Desulfovibrio vulgaris,332 µg/mL
same,MIC50,Fusobacterium nucleatum,2 µg/mL
same,MIC90,Fusobacterium nucleatum,8 µg/mL
same,MIC,Porphyromonas,0.25 µg/mL
same,MIC50,Porphyromonas,0.25 µg/mL
same,MIC90,Porphyromonas,0.5 µg/mL
same,MIC,Prevotella bivia,0.25 µg/mL
same,MIC50,Prevotella bivia,0.25 µg/mL
same,MIC90,Prevotella bivia,0.5 µg/mL
same,MIC,Prevotella corporis,0.25 µg/mL
same,MIC50,Prevotella corporis,0.25 µg/mL
same,MIC90,Prevotella corporis,0.5 µg/mL
same,MIC,Prevotella intermedia,0.25 µg/mL
same,MIC50,Prevotella intermedia,0.25 µg/mL
same,MIC90,Prevotella intermedia,0.5 µg/mL
same,MIC,Hoylesella loescheii,0.25 µg/mL
same,MIC50,Hoylesella loescheii,0.25 µg/mL
same,MIC90,Hoylesella loescheii,0.5 µg/mL
same,MIC50,Clostridium hathewayi,0.25 µg/mL
same,MIC90,Clostridium hathewayi,0.25 µg/mL
same,MIC50,Flavonifractor plautii,> 1020 µg/mL
same,MIC90,Flavonifractor plautii,> 1020 µg/mL
same,MIC,Clostridium bartlettii,0.25 µg/mL
same,MIC50,Clostridium bartlettii,0.25 µg/mL
same,MIC90,Clostridium bartlettii,> 1020 µg/mL
same,MIC,[4],0.25 µg/mL
same,MIC50,[4],0.25 µg/mL
same,MIC90,[4],> 1020 µg/mL
same,MIC,Clostridium butyricum,0.25 µg/mL
same,MIC50,Clostridium butyricum,0.25 µg/mL
same,MIC90,Clostridium butyricum,> 1020 µg/mL
same,MIC,Clostridium cadaveris,0.25 µg/mL
same,MIC50,Clostridium cadaveris,0.25 µg/mL
same,MIC90,Clostridium cadaveris,> 1020 µg/mL
same,MIC,Clostridium disporicum,0.25 µg/mL
same,MIC50,Clostridium disporicum,0.25 µg/mL
same,MIC90,Clostridium disporicum,> 1020 µg/mL
same,MIC,Clostridium fallax,0.25 µg/mL
same,MIC50,Clostridium fallax,0.25 µg/mL
same,MIC90,Clostridium fallax,> 1020 µg/mL
same,MIC,[5],0.25 µg/mL
same,MIC50,[5],0.25 µg/mL
same,MIC90,[5],> 1020 µg/mL
same,MIC,Clostridium nexile,0.25 µg/mL
same,MIC50,Clostridium nexile,0.25 µg/mL
same,MIC90,Clostridium nexile,> 1020 µg/mL
same,MIC,[6],0.25 µg/mL
same,MIC50,[6],0.25 µg/mL
same,MIC90,[6],> 1020 µg/mL
same,MIC,Thomasclavelia ramosa,0.25 µg/mL
same,MIC50,Thomasclavelia ramosa,0.25 µg/mL
same,MIC90,Thomasclavelia ramosa,> 1020 µg/mL
same,MIC,Fusobacterium mortiferum,0.25 µg/mL
same,MIC50,Fusobacterium mortiferum,0.25 µg/mL
same,MIC90,Fusobacterium mortiferum,> 1020 µg/mL
same,MIC,Clostridium subterminale,0.25 µg/mL
same,MIC50,Clostridium subterminale,0.25 µg/mL
same,MIC90,Clostridium subterminale,> 1020 µg/mL
same,MIC,Clostridium symbiosum,0.25 µg/mL
same,MIC50,Clostridium symbiosum,0.25 µg/mL
same,MIC90,Clostridium symbiosum,> 1020 µg/mL
same,MIC50,Schaalia meyeri,0.5 µg/mL
same,MIC90,Schaalia meyeri,> 1020 µg/mL
same,MIC50,[7],0.5 µg/mL
same,MIC90,[7],> 1020 µg/mL
same,MIC50,Bifidobacterium breve,0.5 µg/mL
same,MIC90,Bifidobacterium breve,> 1020 µg/mL
same,MIC50,Bifidobacterium dentium,0.5 µg/mL
same,MIC90,Bifidobacterium dentium,> 1020 µg/mL
same,MIC50,Collinsella aerofaciens,0.5 µg/mL
same,MIC90,Collinsella aerofaciens,> 1020 µg/mL
same,MIC50,[8],0.5 µg/mL
same,MIC90,[8],> 1020 µg/mL
same,MIC50,[9],0.5 µg/mL
same,MIC90,[9],> 1020 µg/mL
same,MIC50,Eubacterium cylindroides,0.5 µg/mL
same,MIC90,Eubacterium cylindroides,> 1020 µg/mL
same,MIC50,Eubacterium limosum,0.5 µg/mL
same,MIC90,Eubacterium limosum,> 1020 µg/mL
same,MIC50,[10],0.5 µg/mL
same,MIC90,[10],> 1020 µg/mL
same,MIC50,[11],0.5 µg/mL
same,MIC90,[11],> 1020 µg/mL
same,MIC50,Lactobacillus sp.,0.5 µg/mL
same,MIC90,Lactobacillus sp.,> 1020 µg/mL
same,MIC,Finegoldia magna,0.25 µg/mL
same,MIC50,Finegoldia magna,0.25 µg/mL
same,MIC90,Finegoldia magna,4 µg/mL
same,MIC,Parvimonas micra,0.25 µg/mL
same,MIC50,Parvimonas micra,0.25 µg/mL
same,MIC90,Parvimonas micra,4 µg/mL
same,MIC,[12],0.25 µg/mL
same,MIC50,[12],0.25 µg/mL
same,MIC90,[12],4 µg/mL
same,MIC,Ruminococcus gnavus,0.25 µg/mL
same,MIC50,Ruminococcus gnavus,0.25 µg/mL
same,MIC90,Ruminococcus gnavus,4 µg/mL
same,MIC,Ruminococcus lactaris,0.25 µg/mL
same,MIC50,Ruminococcus lactaris,0.25 µg/mL
same,MIC90,Ruminococcus lactaris,4 µg/mL
same,MIC,Blautia luti,0.25 µg/mL
same,MIC50,Blautia luti,0.25 µg/mL
same,MIC90,Blautia luti,4 µg/mL
same,MIC,Ruminococcus obeum,0.25 µg/mL
same,MIC50,Ruminococcus obeum,0.25 µg/mL
same,MIC90,Ruminococcus obeum,4 µg/mL
